The subject of data set [1] is HCT116 cells. Briefly: Immunoblotting of cullins, CRL components and substrates in HCT116 cells. Type of data set: cell-based, human. Here is the method:
Figure 2 CSN5 inhibition results in the inactivation of a subset of CRLs and the stabilization of their substrates. Effect on CRL components and substrates after treatment of HCT116 cells with either 1 μM MLN4924 or 1 μM CSN5i-3. (a) Immunoblottings for Cul1 and its CRL components Rbx and Skp1; (b) for cullins Cul2, Cul3 and Cul4A; (c) for F-box protein Skp2 and the SCF^Skp2 substrates p21 and p27; (d) for F-box proteins Fbxo22 and Fbxo30; (e) for F-box protein βTrCP and the SCF^βTrCP substrates Wee1 and pIκBα; (f) for the adaptor KEAP1 and the Cul3^KEAP1 substrate Nrf2; (g) for F-box proteins Fbxw7 and Fbxo3.
Cells were maintained in a humidified incubator at 37 °C and 5% CO2. HCT116 cells (ATCC #CCL-247) were grown in McCoy's 5A medium (GIBCO #16600–082) supplemented with 10% fetal bovine serum (FBS), TE-1 (RIKEN BioResource Center, #RCB1894), NCI-H2030 (ATCC #CRL-591), SU-DHL-1 (DMSZ #ACC 356), NOMO-1 (HSRRB #IFO50474) and NCIH196 cells (ATCC, #CRL-5823) in RPMI-1640 medium (GIBCO#61870–010) supplemented with 10% FBS, 10 mM HEPES, 1 mM sodium pyruvate and THP-1 cells (ATCC #TIB-202) with additional 0.05 mM 2-mercaptoethanol. DMS273 cells (ECACC #950628) were cultured in Waymouth's MB 752/1 medium (GIBCO#11220–035) supplemented with 10% FBS. All cells were negatively tested for mycoplasma contamination either by the vendor or in house. For treatment with compounds, sub-confluent cells were either treated with inhibitors at the indicated concentrations or mock treated with an equivalent amount of DMSO (final content 0.1%). If not stated otherwise, cells were harvested after incubation for 16 h and subjected to SDS–PAGE and western blotting. The RNA interference experiment was performed with CSN5 stealth siRNA (#HSS116986) and stealth negative control siRNA (#12935–400) (Invitrogen), which were transfected at 10 nM into HCT116 cells using HiperFect (Qiagen) according to the manufacturer's protocols. Seventy-two hours after transfection, cells were harvested and subjected to SDS–PAGE and western blotting (see Supplementary Fig. 7 for all western blottings performed).
For further analysis, cell lysates were prepared by direct lysis with 2 × Sample buffer (65.8 mM Tris-HCl, pH 6.8, 2.1% SDS, 26.3% glycerol, 0.01% bromophenol blue and 20 mM DTT). Protein lysates from tumour powder were prepared in RIPA buffer (50 mM Tris-HCl pH 8.0, 150 mM NaCl, 1% Triton X-100, 2 mM EDTA, 0.5% sodium deoxycholate and 0.1% SDS) supplemented with 10 mM N-ethylmaleimide, protease inhibitor and phosphatase inhibitor cocktails (Roche Diagnostics). Cells from longer compound incubations were also lysed in RIPA buffer, which allows the protein concentration to be determined by BCA Protein Assay Kit (Pierce). Proteins were separated by SDS–PAGE using 4–20% Tris-Glycine Gels (Invitrogen) and subsequently transferred to polyvinylidene difluoride membranes using a Trans-Blot Turbo System (BioRad). […] Horseradish peroxidase-conjugated secondary antibodies (1:3,000) were purchased from Promega AG and bound antibody was detected by enhanced chemiluminescence (Pierce).
A general note: Immunoblotting shows a protein as a band on a membrane.

Data set [2] in a line: Blood concentrations of CSN5i-3 in xenograft study. The format is in vivo, SCID-bg mice. To be noted: 50 mg kg^−1 BID and 100 mg kg^−1 QD oral. The protocol: All animal experiments were approved by the Kantonales Veterinäramt Basel-Stadt and were conducted in accordance with the Eidgenössisches Tierschutzgesetz and the Eidgenössische Tierschutzverordnung. SU-DHL-1 cells (1 × 10^7; DSMZ) were implanted subcutaneously into SCID-bg female 7–9-week-old mice (Taconic) and developing tumours were propagated once before subcutaneous transplantation for efficacy studies. Treatment was initiated when tumours reached 150–200 mm^3 volume. […] Randomization was conducted by using an internal computer software (Indigo). CSN5i-3 was formulated in 100 mM citrate buffer pH 3, PEG300, Kolliphor HS15, 1 N HCl (56:30:10:4%w/w). Tumour response is reported as percentage change in tumour volume at the last day of treatment relative to start of treatment. […] At day 10 of treatment blood, samples were taken and concentrations of CSN5i-3 were determined at indicated time points post dose using ultra-high-pressure liquid chromatography/tandem MS. At the end of treatment, tumours were excised and snap frozen in liquid nitrogen. Frozen tumours were pulverized using CryoPrep (Covaris Inc.) and protein lysates were prepared from tumour powder for immunoblot analysis.

Turning to `CC(C)n1nc(C(F)F)cc1C(=O)Nc1ccc([C@H]2[C@@H](O)CCCc3cncn32)c(-c2ccccc2)c1` [CSN5i-3, 3-(Difluoromethyl)-N-(6-((5S,6S)-6-hydroxy-6,7,8,9-tetrahydro-5H-imidazo[1,5-a]azepin-5-yl)-[1,1′-biphenyl]-3-yl)-1-isopropyl-1H-pyrazole-5-carboxamide], in data set [1] (HCT116, 1 μM), the “degradation of Wee1, pIκB and Nrf2” value is reported as “did not affect their degradation”; the “levels of SRMs Skp2, Fbxo22 and Fbxo30” value is “degradation”; the “levels of βTrCP, KEAP1, Fbxo3 and Fbxw7” value is recorded as “remained stable”. Also, the “cullin-1 (Cul1) deneddylation in HCT116 cells” value in data set [1] (qualitative western blot analysis) is “accumulation of neddylated Cul1”. The “dose dependence of exposure” value in data set [2] is recorded as “dose-linear exposure”.

The values above are taken from paper PMC5078989, “Targeted inhibition of the COP9 signalosome for treatment of cancer” (Nature Communications, 2016).
